As a reminder, the Emax is the maximal effect, on the per cent scale that the assay sets.

Common to all, as to assay type: cell-based
One experiment addresses T1, M3 muscarinic receptor (Homo sapiens, UniProt P20309).
T1 construct: expressed in transfected cells; host or cells: CHO (M3-CHO)
Nature of the experiment: Functional mobilization of intracellular calcium (FLIPR), M3-CHO cells. As to conditions: for Emax: 100% efficacy = maximum response obtained with the Carbachol control; for M3 Activity: M3-CHO cells, calcium mobilization (FLIPR). Put shortly:
(§1)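 FLIPR fluorescence (ex 488, em 540 nm) recorded 60 sec after compound addition to dye-loaded CHO cells. Agonist mode: compound alone. Antagonist mode: 15 min compound pre-incubation, then carbachol at EC80, or co-application. Efficacy expressed as % of maximal carbachol response.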

A further experiment concerns the target T2, M2 muscarinic receptor (Homo sapiens, UniProt P08172).
T2 construct: expressed in transfected cells; host or cells: CHO (M2-CHO)
T2 sequence (P08172 1-466): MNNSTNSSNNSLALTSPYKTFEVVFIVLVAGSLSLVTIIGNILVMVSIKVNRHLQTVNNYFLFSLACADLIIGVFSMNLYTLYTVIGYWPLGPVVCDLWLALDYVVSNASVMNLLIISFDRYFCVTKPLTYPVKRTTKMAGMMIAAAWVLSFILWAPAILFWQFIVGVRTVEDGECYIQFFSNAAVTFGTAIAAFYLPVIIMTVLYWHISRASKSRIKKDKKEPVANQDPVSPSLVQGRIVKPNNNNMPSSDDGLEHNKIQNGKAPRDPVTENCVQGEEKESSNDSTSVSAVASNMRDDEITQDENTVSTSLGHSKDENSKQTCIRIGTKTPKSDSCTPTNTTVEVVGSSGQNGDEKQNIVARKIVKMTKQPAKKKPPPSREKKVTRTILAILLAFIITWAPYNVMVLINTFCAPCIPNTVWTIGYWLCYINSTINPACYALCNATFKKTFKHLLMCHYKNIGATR
Nature of the experiment: Functional mobilization of intracellular calcium (FLIPR), M2-CHO cells. The settings on record: for Emax: 100% efficacy = maximum response obtained with the Carbachol control; for M2 Activity: M2-CHO cells, calcium mobilization (FLIPR). A digest of the protocol:
as §1
(In general: A change in cytosolic calcium serves as a functional read-out for many receptors and channels.)

The next experiment addresses T3, M4 muscarinic receptor (Homo sapiens, UniProt P08173).
T3 construct: expressed in transfected cells; host or cells: CHO (M4-CHO)
T3 sequence (P08173 1-479): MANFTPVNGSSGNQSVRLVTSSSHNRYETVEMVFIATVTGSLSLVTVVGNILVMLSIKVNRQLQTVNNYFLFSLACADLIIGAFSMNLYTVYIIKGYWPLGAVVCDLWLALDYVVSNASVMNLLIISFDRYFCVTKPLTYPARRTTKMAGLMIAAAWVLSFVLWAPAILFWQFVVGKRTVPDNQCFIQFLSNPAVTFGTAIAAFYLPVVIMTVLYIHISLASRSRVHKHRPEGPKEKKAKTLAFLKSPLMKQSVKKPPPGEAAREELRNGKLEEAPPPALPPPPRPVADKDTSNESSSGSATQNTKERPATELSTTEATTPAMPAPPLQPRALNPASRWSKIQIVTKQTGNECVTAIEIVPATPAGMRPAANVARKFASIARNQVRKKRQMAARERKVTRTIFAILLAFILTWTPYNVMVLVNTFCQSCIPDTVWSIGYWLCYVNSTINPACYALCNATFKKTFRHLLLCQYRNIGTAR
Nature of the experiment: Functional mobilization of intracellular calcium (FLIPR), M4-CHO cells. As to conditions: for Emax: 100% efficacy = maximum response obtained with the Carbachol control; for M4 Activity: M4-CHO cells, calcium mobilization (FLIPR). A digest of the protocol:
as §1

Another experiment deals with T4, M1 muscarinic receptor (Homo sapiens, UniProt P11229).
T4 construct: expressed in transfected cells; host or cells: CHO (M1-CHO)
T4 sequence (P11229 1-460): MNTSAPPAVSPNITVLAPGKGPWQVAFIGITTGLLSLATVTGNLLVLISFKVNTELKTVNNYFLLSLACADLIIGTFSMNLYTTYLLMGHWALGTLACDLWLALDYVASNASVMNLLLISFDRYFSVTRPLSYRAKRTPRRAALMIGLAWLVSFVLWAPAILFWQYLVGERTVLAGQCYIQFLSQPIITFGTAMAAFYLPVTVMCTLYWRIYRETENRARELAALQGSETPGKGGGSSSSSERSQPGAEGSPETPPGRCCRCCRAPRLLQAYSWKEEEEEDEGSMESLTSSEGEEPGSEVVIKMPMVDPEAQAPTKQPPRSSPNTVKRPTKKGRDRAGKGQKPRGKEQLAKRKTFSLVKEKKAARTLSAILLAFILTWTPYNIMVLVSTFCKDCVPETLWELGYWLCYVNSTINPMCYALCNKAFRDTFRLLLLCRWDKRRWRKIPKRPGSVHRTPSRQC
Nature of the experiment: Functional mobilization of intracellular calcium (FLIPR), M1-CHO cells. The settings on record: for Emax: 100% efficacy = maximum response obtained with the Carbachol control; for M1 Activity: M1-CHO cells, calcium mobilization (FLIPR). A digest of the protocol:
as §1

Each structure is given as a SMILES string.

T1 sequence (P20309 whole entry): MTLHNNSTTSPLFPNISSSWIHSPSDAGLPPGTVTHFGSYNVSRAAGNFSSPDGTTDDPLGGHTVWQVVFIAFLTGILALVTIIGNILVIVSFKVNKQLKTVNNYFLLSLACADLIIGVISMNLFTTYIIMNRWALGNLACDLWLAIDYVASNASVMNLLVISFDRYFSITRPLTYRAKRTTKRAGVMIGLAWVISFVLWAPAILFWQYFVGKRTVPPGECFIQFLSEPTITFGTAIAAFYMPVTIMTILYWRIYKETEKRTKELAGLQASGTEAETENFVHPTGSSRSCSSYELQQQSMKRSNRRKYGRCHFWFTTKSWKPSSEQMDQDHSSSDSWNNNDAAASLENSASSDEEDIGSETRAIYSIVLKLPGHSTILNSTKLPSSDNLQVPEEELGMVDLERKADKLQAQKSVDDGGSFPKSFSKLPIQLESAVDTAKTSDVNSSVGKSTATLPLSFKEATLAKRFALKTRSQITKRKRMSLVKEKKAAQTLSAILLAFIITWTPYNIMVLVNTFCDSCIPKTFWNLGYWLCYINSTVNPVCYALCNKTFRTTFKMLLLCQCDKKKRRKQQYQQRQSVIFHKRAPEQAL

In the case of `Fc1ccc(F)c(C2CCN(C3C[C@H]4CC[C@H]3C4)CC2)c1` (stereo partly drawn) [Compound 205], at M3 muscarinic receptor, the Emax was under 25% and the “M3 Activity” value is reported as “+ (activity was measured to be greater than 5.0 μM)”. Besides, at M2 muscarinic receptor, the maximal response (Emax) lay within 25 to 100% and the “M2 Activity” value was “++ (activity was measured to be from 1.0 μM to 5.0 μM)”. At M4 muscarinic receptor, the maximal response (Emax) was 25 to 100% and the “M4 Activity” value is reported as “+++ (activity was measured to be less than 1.0 μM)”. Moreover, on M1 muscarinic receptor, the maximum response (Emax) is 25 to 100% and the “M1 Activity” value was “++ (activity was measured to be from 1.0 μM to 5.0 μM)”.
`COc1ccc(F)cc1C1CCN(CC2CC3CCC2CC3)CC1` (stereo not drawn) [Compound 104]: on M3 muscarinic receptor, the Emax was under 25% and the “M3 Activity” value is on record as “+ (activity was measured to be greater than 5.0 μM)”. Moreover, at M2 muscarinic receptor, the Emax is under 25% and the “M2 Activity” value is on record as “+ (activity was measured to be greater than 5.0 μM)”. On M4 muscarinic receptor, the Emax fell in the range of 25 to 100% and the “M4 Activity” value is “++ (activity was measured to be from 1.0 μM to 5.0 μM)”. Also, at M1 muscarinic receptor, the Emax is under 25% and the “M1 Activity” value is listed as “+ (activity was measured to be greater than 5.0 μM)”.
Take `CCOC(=O)N1C2CCC1CC(N1CCC(c3ccccc3OC)CC1)C2` (stereo not drawn) [Compound 202]: at M3 muscarinic receptor, the maximum response (Emax) is under 25% and the “M3 Activity” value is “+ (activity was measured to be greater than 5.0 μM)”. Further, at M2 muscarinic receptor, the maximal response (Emax) fell in the range of 25 to 100% and the “M2 Activity” value is “++ (activity was measured to be from 1.0 μM to 5.0 μM)”. Also, at M4 muscarinic receptor, the Emax lay in the range of 25 to 100% and the “M4 Activity” value is on record as “+++ (activity was measured to be less than 1.0 μM)”. In addition, on M1 muscarinic receptor, the Emax was 25 to 100% and the “M1 Activity” value is given as “+++ (activity was measured to be less than 1.0 μM)”.
As to `CCOC(=O)N1C2CCC1CC(N1CCC(F)(c3cc(F)ccc3OC)CC1)C2` (stereo not drawn) [Compound 334], at M3 muscarinic receptor, the Emax is under 25% and the “M3 Activity” value was “+ (activity was measured to be greater than 5.0 μM)”. On M2 muscarinic receptor, the maximal effect (Emax) was under 25% and the “M2 Activity” value is reported as “+ (activity was measured to be greater than 5.0 μM)”. Moreover, on M4 muscarinic receptor, the maximum response (Emax) was in the range of 25 to 100% and the “M4 Activity” value is “+++ (activity was measured to be less than 1.0 μM)”. Also, at M1 muscarinic receptor, the maximal response (Emax) lay within 25 to 100% and the “M1 Activity” value is reported as “+++ (activity was measured to be less than 1.0 μM)”.
As for `Clc1ccc(-c2ccccc2C2CCN([C@H]3C[C@H]4CC[C@H]3C4)CC2)cc1` [Compound 142], at M3 muscarinic receptor, the Emax was under 25% and the “M3 Activity” value was “+ (activity was measured to be greater than 5.0 μM)”. Moreover, on M2 muscarinic receptor, the Emax fell in the range of 25 to 100% and the “M2 Activity” value was “+ (activity was measured to be greater than 5.0 μM)”. In addition, at M4 muscarinic receptor, the Emax lay in the range of 25 to 100% and the “M4 Activity” value was “++ (activity was measured to be from 1.0 μM to 5.0 μM)”. For the same compound, on M1 muscarinic receptor, the maximum response (Emax) lay in the range of 25 to 100% and the “M1 Activity” value is given as “+ (activity was measured to be greater than 5.0 μM)”.
Take `COc1ccc(-c2ccc(S(=O)(=O)N3CCCC3)cc2)cc1C1CCN(C2CC3CCC(C3)C2)CC1` (stereo not drawn) [Compound 129]: at M3 muscarinic receptor, the maximal response (Emax) was under 25% and the “M3 Activity” value is listed as “+ (activity was measured to be greater than 5.0 μM)”. On M2 muscarinic receptor, the Emax is under 25% and the “M2 Activity” value is on record as “+ (activity was measured to be greater than 5.0 μM)”. Also, on M4 muscarinic receptor, the maximal effect (Emax) lay within 25 to 100% and the “M4 Activity” value is “+ (activity was measured to be greater than 5.0 μM)”. At M1 muscarinic receptor, the maximal response (Emax) is under 25% and the “M1 Activity” value is recorded as “+ (activity was measured to be greater than 5.0 μM)”.
With `COc1ccccc1C1CCN(C2CC3CC(C)CC(C3)C2)CC1` (stereo not drawn) [Compound 112], at M3 muscarinic receptor, the Emax was under 25% and the “M3 Activity” value is on record as “+ (activity was measured to be greater than 5.0 μM)”. Besides, on M2 muscarinic receptor, the maximal response (Emax) is under 25% and the “M2 Activity” value was “+ (activity was measured to be greater than 5.0 μM)”. In addition, at M4 muscarinic receptor, the Emax was 25 to 100% and the “M4 Activity” value was “+ (activity was measured to be greater than 5.0 μM)”. Further, at M1 muscarinic receptor, the maximal effect (Emax) was under 25% and the “M1 Activity” value was “+ (activity was measured to be greater than 5.0 μM)”.
As for `CCOC(=O)N1CCC(CN2CCC(O)(c3cc(F)ccc3OC)CC2)CC1` [Compound 189], at M3 muscarinic receptor, the Emax was under 25% and the “M3 Activity” value is listed as “+ (activity was measured to be greater than 5.0 μM)”. In addition, at M2 muscarinic receptor, the Emax was under 25% and the “M2 Activity” value is given as “+ (activity was measured to be greater than 5.0 μM)”. At M4 muscarinic receptor, the maximum response (Emax) was 25 to 100% and the “M4 Activity” value was “+++ (activity was measured to be less than 1.0 μM)”. Further, at M1 muscarinic receptor, the Emax was 25 to 100% and the “M1 Activity” value is “+++ (activity was measured to be less than 1.0 μM)”.
In the case of `COc1ccc(-c2ccc(C(=O)Nc3nccs3)cc2)cc1C1CCN(C2CC3CCC(C3)C2)CC1` (stereo not drawn) [Compound 313], on M3 muscarinic receptor, the Emax was under 25% and the “M3 Activity” value is “+ (activity was measured to be greater than 5.0 μM)”. On M2 muscarinic receptor, the Emax is under 25% and the “M2 Activity” value is “+ (activity was measured to be greater than 5.0 μM)”. Besides, at M4 muscarinic receptor, the Emax was under 25% and the “M4 Activity” value was “+ (activity was measured to be greater than 5.0 μM)”. Moreover, on M1 muscarinic receptor, the maximal response (Emax) was under 25% and the “M1 Activity” value is reported as “+ (activity was measured to be greater than 5.0 μM)”.
With `CCOC(=O)N1CCC(CN2CCC(c3ccccc3C)CC2)CC1` [Compound 306], at M3 muscarinic receptor, the maximal effect (Emax) was in the range of 25 to 100% and the “M3 Activity” value is “+++ (activity was measured to be less than 1.0 μM)”. On M2 muscarinic receptor, the Emax is 25 to 100% and the “M2 Activity” value is recorded as “+++ (activity was measured to be less than 1.0 μM)”. Further, at M4 muscarinic receptor, the maximum response (Emax) was in the range of 25 to 100% and the “M4 Activity” value is “+++ (activity was measured to be less than 1.0 μM)”. Also, at M1 muscarinic receptor, the maximal response (Emax) lay in the range of 25 to 100% and the “M1 Activity” value is given as “+++ (activity was measured to be less than 1.0 μM)”.
Turning to `COc1ccc(Cl)cc1C1(F)CCN(C2CC3CCC(C3)C2)CC1` (stereo not drawn) [Compound 356], at M3 muscarinic receptor, the maximum response (Emax) is under 25% and the “M3 Activity” value is on record as “+ (activity was measured to be greater than 5.0 μM)”. Further, on M2 muscarinic receptor, the Emax is 25 to 100% and the “M2 Activity” value is “+ (activity was measured to be greater than 5.0 μM)”. Moreover, on M4 muscarinic receptor, the Emax lay in the range of 25 to 100% and the “M4 Activity” value is “+++ (activity was measured to be less than 1.0 μM)”. Moreover, at M1 muscarinic receptor, the Emax was 25 to 100% and the “M1 Activity” value was “+ (activity was measured to be greater than 5.0 μM)”.
`CCOC(=O)N1CCC(CN2CCC(c3ccc(F)cc3OC)CC2)CC1` [Compound 364]: at M3 muscarinic receptor, the Emax was under 25% and the “M3 Activity” value is reported as “+ (activity was measured to be greater than 5.0 μM)”. Also, on M2 muscarinic receptor, the maximum response (Emax) is under 25% and the “M2 Activity” value was “+ (activity was measured to be greater than 5.0 μM)”. In addition, on M4 muscarinic receptor, the maximal effect (Emax) was 25 to 100% and the “M4 Activity” value is on record as “+++ (activity was measured to be less than 1.0 μM)”. Besides, at M1 muscarinic receptor, the Emax fell in the range of 25 to 100% and the “M1 Activity” value was “+++ (activity was measured to be less than 1.0 μM)”.
